Here are results for 32 compounds from patent US11897862B2 (Gilead Sciences, Inc., priority 2022, dated 2024).

For one test, the target named is IKZF2 (Homo sapiens, UniProt Q96SW2+Q9UKS7). The experiment in a line: HEK293 HiBiT in vitro degradation of IKZF2. Type of test: cell-based. Further details: expressed in transfected cells. As to conditions: for Dmax: HEK293, HEK293 HiBiT; for Dmax / IKZF2 Dmax: maximum degradation at the highest concentration tested; for DC50 / IKZF2 Dmax: HEK293 HiBiT; for DC50: 18-24 hr incubation, normalized to DMSO control, read-out: IKZF2 EC50. The gist of the method:
(§1)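 EC50 and Dmax come from Nano-Glo lytic luminescence after 18-24 hr compound treatment at 37° C. Reporter cells were single-copy Flp-In T-REx HEK293 pools carrying HiBiT fused to the C-terminus of IKZF1, IKZF2 or SALL4. Expression was induced overnight beforehand with […] doxycycline.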

In a further test the target is T1, IKZF1 (Homo sapiens, UniProt Q13422+Q96SW2).
T1 construct: expressed in transfected cells
The experiment in a line: HEK293 HiBiT in vitro degradation of IKZF1. The settings on record: for Dmax: HEK293, HEK293 HiBiT; for Dmax / IKZF1 Dmax: maximum degradation at the highest concentration tested; for DC50 / IKZF1 Dmax: HEK293 HiBiT; for DC50: 18-24 hr incubation, normalized to DMSO control, read-out: IKZF1 EC50. The test is classed as cell-based. The gist of the method: as §1
On the technique in general: HiBiT is a short tag that completes a luciferase, so light tracks the accessible tagged protein.

For orientation: Dmax means the largest share of the target that was removed.

Sequence of IKZF2 (Q9UKS7 1-500 isoform Q9UKS7-2): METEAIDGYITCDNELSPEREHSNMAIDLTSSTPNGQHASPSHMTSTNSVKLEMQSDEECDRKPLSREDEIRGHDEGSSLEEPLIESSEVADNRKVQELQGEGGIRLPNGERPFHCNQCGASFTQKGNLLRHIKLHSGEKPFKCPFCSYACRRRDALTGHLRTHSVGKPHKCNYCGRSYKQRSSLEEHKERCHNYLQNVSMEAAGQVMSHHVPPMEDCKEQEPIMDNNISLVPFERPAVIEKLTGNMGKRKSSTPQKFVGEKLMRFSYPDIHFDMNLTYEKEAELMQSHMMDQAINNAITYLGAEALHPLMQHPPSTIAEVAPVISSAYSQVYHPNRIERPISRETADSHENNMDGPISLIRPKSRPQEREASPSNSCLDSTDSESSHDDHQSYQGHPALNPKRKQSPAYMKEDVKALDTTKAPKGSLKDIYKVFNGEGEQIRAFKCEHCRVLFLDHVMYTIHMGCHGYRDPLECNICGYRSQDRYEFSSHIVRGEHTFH
Sequence of IKZF2 (Q96SW2 whole entry, the tested form may be a part): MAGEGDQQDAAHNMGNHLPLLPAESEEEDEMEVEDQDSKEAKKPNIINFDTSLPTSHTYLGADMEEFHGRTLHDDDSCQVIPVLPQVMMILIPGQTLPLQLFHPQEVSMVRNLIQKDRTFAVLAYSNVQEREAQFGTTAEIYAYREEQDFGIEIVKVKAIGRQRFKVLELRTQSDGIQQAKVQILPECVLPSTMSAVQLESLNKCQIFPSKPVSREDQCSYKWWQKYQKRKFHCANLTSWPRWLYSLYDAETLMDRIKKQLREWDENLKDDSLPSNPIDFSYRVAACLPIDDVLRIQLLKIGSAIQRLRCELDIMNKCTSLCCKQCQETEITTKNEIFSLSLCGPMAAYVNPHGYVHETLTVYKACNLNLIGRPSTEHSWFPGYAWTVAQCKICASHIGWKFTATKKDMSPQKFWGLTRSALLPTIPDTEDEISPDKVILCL
Sequence of IKZF2 (Q16531 whole entry partner, the tested form may be a part): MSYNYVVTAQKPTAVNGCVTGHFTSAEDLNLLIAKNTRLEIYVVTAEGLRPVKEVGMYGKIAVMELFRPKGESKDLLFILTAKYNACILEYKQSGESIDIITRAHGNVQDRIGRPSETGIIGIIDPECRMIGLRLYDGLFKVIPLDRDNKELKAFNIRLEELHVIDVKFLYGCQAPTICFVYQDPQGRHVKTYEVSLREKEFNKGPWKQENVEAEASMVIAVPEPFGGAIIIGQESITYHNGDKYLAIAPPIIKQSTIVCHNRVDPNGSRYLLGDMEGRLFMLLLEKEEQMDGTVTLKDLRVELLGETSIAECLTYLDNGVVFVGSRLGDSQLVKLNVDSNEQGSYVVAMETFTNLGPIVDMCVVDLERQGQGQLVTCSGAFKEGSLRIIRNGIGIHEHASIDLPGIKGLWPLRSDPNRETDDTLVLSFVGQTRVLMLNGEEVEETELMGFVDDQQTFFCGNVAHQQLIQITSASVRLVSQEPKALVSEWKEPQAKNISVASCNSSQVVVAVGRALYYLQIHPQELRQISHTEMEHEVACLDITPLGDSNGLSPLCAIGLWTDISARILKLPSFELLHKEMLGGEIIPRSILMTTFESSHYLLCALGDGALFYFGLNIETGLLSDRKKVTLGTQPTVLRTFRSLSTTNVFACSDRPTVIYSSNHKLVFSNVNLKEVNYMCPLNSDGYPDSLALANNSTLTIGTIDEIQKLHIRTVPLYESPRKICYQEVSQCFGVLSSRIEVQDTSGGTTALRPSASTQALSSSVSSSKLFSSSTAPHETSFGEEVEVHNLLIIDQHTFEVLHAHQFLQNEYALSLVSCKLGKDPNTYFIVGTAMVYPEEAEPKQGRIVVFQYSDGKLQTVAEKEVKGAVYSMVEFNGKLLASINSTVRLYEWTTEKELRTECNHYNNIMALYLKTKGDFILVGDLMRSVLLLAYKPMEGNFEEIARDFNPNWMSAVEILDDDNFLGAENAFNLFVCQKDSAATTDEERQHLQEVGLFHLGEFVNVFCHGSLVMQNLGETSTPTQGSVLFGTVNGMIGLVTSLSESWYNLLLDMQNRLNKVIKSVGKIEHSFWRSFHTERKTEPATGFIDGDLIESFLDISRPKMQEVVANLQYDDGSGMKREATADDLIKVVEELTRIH
T1 sequence (Q13422 whole entry): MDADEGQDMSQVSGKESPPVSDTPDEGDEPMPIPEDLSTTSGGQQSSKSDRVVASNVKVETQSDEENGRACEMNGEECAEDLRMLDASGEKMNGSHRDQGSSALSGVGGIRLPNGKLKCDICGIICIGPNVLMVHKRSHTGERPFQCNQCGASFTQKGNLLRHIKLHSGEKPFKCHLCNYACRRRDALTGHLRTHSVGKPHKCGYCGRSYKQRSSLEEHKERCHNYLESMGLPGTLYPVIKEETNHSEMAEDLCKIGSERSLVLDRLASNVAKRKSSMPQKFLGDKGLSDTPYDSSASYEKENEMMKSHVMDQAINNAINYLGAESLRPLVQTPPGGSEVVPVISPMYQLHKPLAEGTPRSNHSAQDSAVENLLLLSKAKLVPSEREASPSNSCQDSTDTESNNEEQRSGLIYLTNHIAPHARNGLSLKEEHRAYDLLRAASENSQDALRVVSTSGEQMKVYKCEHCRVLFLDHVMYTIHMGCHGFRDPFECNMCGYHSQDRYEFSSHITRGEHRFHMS
T1 sequence (Q96SW2 whole entry): as the sequence (Q96SW2 whole entry, the tested form may be a part) above
T1 sequence (Q16531 whole entry partner): as the sequence (Q16531 whole entry partner, the tested form may be a part) above

For the compound `O=C1CCC(N2Cc3cc(C[C@H]4CCCC[C@@H]4NC4CCC(C(F)F)CC4)ccc3C2=O)C(=O)N1` (stereo partly shown) [Example 216], at IKZF2, the Dmax turned out to be 98% and the DC50 worked out at 2 nM. At IKZF1, the Dmax is 34% and the DC50 came out at 51 nM.
As to `CCC(C)N[C@H]1CCCC[C@@H]1Cc1ccc2c(c1F)CN(C1CCC(=O)NC1=O)C2=O` (single isomer, unassigned) [Example 295], on IKZF2, the DC50 came to 1 nM and the “IKZF2 Dmax” value was 97%. For the same compound, at IKZF1, the DC50 is 283 nM and the “IKZF1 Dmax” value worked out at 43%.
`CC(C)(C#N)CCN[C@H]1CCCC[C@@H]1Cc1ccc2c(c1)CN(C1CCC(=O)NC1=O)C2=O` (stereo partly shown) [Example 133]: at IKZF2, the Dmax came out at 96% and the DC50 came out at 32 nM. At IKZF1, the Dmax is 30% and the DC50 was 132 nM.
Regarding `O=C1CC[C@H](N2Cc3cc(C[C@H]4CCCC[C@@H]4NC4CCC(F)(F)CC4)cc(F)c3C2=O)C(=O)N1` [Example 347], the Dmax on IKZF2 was determined as 75%. Also, the DC50 on IKZF2 is 38 nM; at IKZF1, above 1000 nM.
In the same order, the values of `O=C1CCC(N2Cc3cc(C[C@H]4CCCC[C@@H]4NCc4cccnc4F)ccc3C2=O)C(=O)N1` (stereo partly shown) [Example 62] are 79%, 56 nM and above 1000 nM.
As to `O=C1CCC(N2Cc3cc(C[C@H]4CCCC[C@@H]4NCc4cc(Cl)cc(Cl)c4)ccc3C2=O)C(=O)N1` (stereo partly drawn) [Example 13, 3-(5-(((1R,2S)-2-((3,5-dichlorobenzyl)amino)cyclohexyl)methyl)-1-oxoisoindolin-2-yl)piperidine-2,6-dione], on IKZF2, the Dmax was 68% and the DC50 came to 79 nM. The DC50 at IKZF1 was above 1000 nM.
The matching figures for `O=C1CCC(N2Cc3cc(C[C@H]4CCC[C@@H]4NC4CCC(F)(F)CC4)ccc3C2=O)C(=O)N1` (stereo partly shown) [Example 178]: 72%, 168 nM and above 1000 nM.
In the case of `CC(N[C@H]1CCCC[C@@H]1Cc1ccc2c(c1)CN(C1CCC(=O)NC1=O)C2=O)C1(C#N)CC1` (single isomer, unassigned) [Example 255], the figures for the DC50 at IKZF2 and on IKZF1 were 32 nM and above 1000 nM, respectively. The “IKZF2 Dmax” value on IKZF2 is recorded as 87%.
In the case of `O=C1CCC(N2Cc3cc(C[C@H]4CCCC[C@@H]4NC4CCCC[C@H]4F)ccc3C2=O)C(=O)N1` (stereo partly shown) [Example 107], on IKZF2, the Dmax worked out at 96% and the DC50 is 3 nM. In addition, at IKZF1, the Dmax stood at 36% and the DC50 amounted to 81 nM.
For the compound `CC(N[C@H]1CCCC[C@@H]1Cc1ccc2c(c1)CN(C1CCC(=O)NC1=O)C2=O)C1(C)CCC1` (stereo partly shown) [Example 207], at IKZF2, the DC50 is 2 nM and the “IKZF2 Dmax” value stood at 94%. Besides, the DC50 at IKZF1 was above 1000 nM.
As for `O=C1CCC(N2Cc3cc(C[C@H]4CCCC[C@@H]4NC4CCC5(CC4)CC5(F)F)ccc3C2=O)C(=O)N1` (single isomer, unassigned) [Example 271], on IKZF2, the Dmax was 98% and the DC50 stood at 2 nM. At IKZF1, the Dmax was 44% and the DC50 was 45 nM.
As for `CC(C)OC1CCC(N[C@H]2CCCO[C@@H]2Cc2ccc3c(c2F)CN(C2CCC(=O)NC2=O)C3=O)CC1` (single isomer, unassigned) [Example 285], on IKZF2, the DC50 stood at 8 nM and the “IKZF2 Dmax” value worked out at 94%. Besides, at IKZF1, the Dmax turned out to be 37% and the DC50 came to 124 nM.
Take `O=C1CCC(N2Cc3cc(C[C@H]4CCCC[C@@H]4NC4CCC5(CC4)COC5)ccc3C2=O)C(=O)N1` (stereo partly drawn) [Example 86, 3-(5-(((1R,2S)-2-((2-oxaspiro[3.5]nonan-7-yl)amino)cyclohexyl)methyl)-1-oxoisoindolin-2-yl)piperidine-2,6-dione]: the greatest degradation seen (Dmax) at IKZF2 worked out at 97%; at IKZF1, 34%. Moreover, the DC50 on IKZF2 amounted to 12 nM; on IKZF1 it was 141 nM.
Turning to `O=C1CCC(N2Cc3cc(C[C@H]4CCOC[C@@H]4NC4CCC(F)(F)CC4)ccc3C2=O)C(=O)N1` (stereo partly shown) [Example 126], on IKZF2, the Dmax was found to be 80% and the DC50 came out at 114 nM. On IKZF1, the DC50 was above 1000 nM.
In the same order, the values of `CCC(C)N[C@H]1CCCC[C@@H]1Cc1ccc2c(c1)CN(C1CCC(=O)NC1=O)C2=O` (stereo partly shown) [Example 176] are 96%, 3 nM and above 1000 nM.
In the same order, the values of `Cn1ccc(CN[C@H]2CCCC[C@@H]2Cc2ccc3c(c2)CN(C2CCC(=O)NC2=O)C3=O)n1` (stereo partly drawn) [Example 38, 3-(5-(((1R,2S)-2-(((1-methyl-1H-pyrazol-3-yl)methyl)amino)cyclohexyl)methyl)-1-oxoisoindolin-2-yl)piperidine-2,6-dione] are 97%, 192 nM and above 1000 nM.
The matching figures for `O=C1CCC(N2Cc3cc(C[C@H]4CCCC[C@@H]4N(CC4CCOCC4)CC4CCOCC4)ccc3C2=O)C(=O)N1` (stereo partly shown) [Example 70]: 48%, 80 nM and above 1000 nM.
With `CCC(C)N[C@H]1CCCC[C@@H]1Cc1ccc2c(c1F)CN(C1CCC(=O)NC1=O)C2=O` (single isomer, unassigned) [Example 294], at IKZF2, the Dmax was determined as 97% and the DC50 was 2 nM. At IKZF1, the Dmax came out at 59% and the DC50 came out at 912 nM.
The matching figures for `O=C1CCC(N2Cc3cc(C[C@H]4CCC[C@H](O)[C@@H]4NC4CCC(F)(F)CC4)ccc3C2=O)C(=O)N1` (stereo partly shown) [Example 163]: 95%, 14 nM, 45% and 328 nM.
On IKZF2, `O=C1CCC(N2Cc3cc(C[C@H]4CCCC[C@@H]4NC4CC4)ccc3C2=O)C(=O)N1` (stereo partly drawn) [Example 47, 3-(5-(((1R,2S)-2-(cyclopropylamino)cyclohexyl)methyl)-1-oxoisoindolin-2-yl)piperidine-2,6-dione] came in with a Dmax of 93%. For the same compound, the figures for the DC50 at IKZF2 and at IKZF1 were 6 nM and above 1000 nM, respectively.
As to `CCC(C)N[C@H]1CCCC[C@@H]1Cc1ccc2c(c1F)CN(C1CCC(=O)NC1=O)C2=O` (stereo partly shown) [Example 307], at IKZF2, the Dmax was 96% and the DC50 worked out at 1 nM. Moreover, on IKZF1, the Dmax came to 40% and the DC50 came out at 111 nM.
Turning to `CCC(N[C@H]1CCCC[C@@H]1Cc1ccc2c(c1)CN(C1CCC(=O)NC1=O)C2=O)C1CC1` (single isomer, unassigned) [Example 232], on IKZF2, the Dmax is 93% and the DC50 was found to be 21 nM. At IKZF1, the DC50 was above 1000 nM.
In the same order, the values of `O=C1CCC(N2Cc3c(ccc(C[C@H]4OCCC[C@@H]4NCC4CCC4)c3F)C2=O)C(=O)N1` (stereo partly shown) [Example 152] are 78%, 26 nM and above 500 nM.
For `O=C1CCC(N2Cc3cc(C[C@H]4CC(CO)CC[C@@H]4NC4CCCCC4)ccc3C2=O)C(=O)N1` (single isomer, unassigned) [Example 382], on IKZF2, the DC50 worked out at 629 nM and the “IKZF2 Dmax” value is given as 48%. The DC50 on IKZF1 was above 1000 nM.
The matching figures for `CCC(C)N[C@H]1CCCO[C@@H]1Cc1ccc2c(c1F)CN(C1CCC(=O)NC1=O)C2=O` (single isomer, unassigned) [Example 293]: 8 nM, 94% and above 1000 nM.
Turning to `O=C1CCC(N2Cc3c(ccc(C[C@H]4CCCC[C@@H]4NC4CCOCC4)c3F)C2=O)C(=O)N1` (stereo partly shown) [Example 188], on IKZF2, the DC50 was found to be 2 nM and the “IKZF2 Dmax” value is 98%. In addition, at IKZF1, the DC50 was determined as 44 nM and the “IKZF1 Dmax” value was found to be 34%.
At IKZF2, `O=C1CCC(N2Cc3cc(C[C@H]4CCCC[C@@H]4NCC4CCOCC4)ccc3C2=O)C(=O)N1` (stereo partly shown) [Example 71] showed a Dmax of 89%. Also, the DC50 on IKZF2 is 37 nM; on IKZF1 it was above 1000 nM.
In the case of `O=C1CCC(N2Cc3cc(C[C@H]4CCCC[C@@H]4NC4CCCCC45CC5)ccc3C2=O)C(=O)N1` (stereo partly shown) [Example 229], on IKZF2, the DC50 is 8 nM and the “IKZF2 Dmax” value is 97%. Further, the DC50 at IKZF1 is above 1000 nM.
In the case of `O=C1CCC(N2Cc3cc(C[C@H]4CCCC[C@@H]4N4CC5(CN(Cc6ccccc6Cl)C5)C4)ccc3C2=O)C(=O)N1` (stereo partly drawn) [Example 34, 3-(5-(((1R,2S)-2-(6-(2-chlorobenzyl)-2,6-diazaspiro[3.3]heptan-2-yl)cyclohexyl)methyl)-1-oxoisoindolin-2-yl)piperidine-2,6-dione], the figures for the Dmax on IKZF2 and on IKZF1 were 80% and 29%, respectively. In addition, the figures for the DC50 on IKZF2 and on IKZF1 were 28 nM and 51 nM, respectively.
Turning to `CC(CCC(F)F)N[C@H]1CCCO[C@@H]1Cc1ccc2c(c1F)CN(C1CCC(=O)NC1=O)C2=O` (stereo partly drawn) [Example 320, 3-(5-(((2R,3S)-3-((5,5-difluoropentan-2-yl)amino)tetrahydro-2H-pyran-2-yl)methyl)-4-fluoro-1-oxoisoindolin-2-yl)piperidine-2,6-dione], on IKZF2, the Dmax is 93% and the DC50 amounted to 11 nM. In addition, at IKZF1, the DC50 was above 1000 nM.
In the same order, the values of `CC(N[C@H]1CCCC[C@@H]1Cc1ccc2c(c1)CN(C1CCC(=O)NC1=O)C2=O)C1CCCCC1` (stereo partly shown) [Example 203] are 95%, 13 nM and above 1000 nM.
Regarding `O=C1CCC(N2Cc3cc(C[C@H]4CCCC[C@@H]4NCC4CC4)ccc3C2=O)C(=O)N1` (stereo partly drawn) [Example 8, 3-(5-(((1R,2S)-2-((cyclopropylmethyl)amino)cyclohexyl)methyl)-1-oxoisoindolin-2-yl)piperidine-2,6-dione], the Dmax was 94% on IKZF2 and 34% on IKZF1. Moreover, the DC50 at IKZF2 came out at 47 nM; at IKZF1 it was 229 nM.
